This is an account of results in PubChem BioAssay (NCI).

SMILES strings stand for the structures. “And” between values parts separate entries of the source, which are not always exact repeats. Identical values can stand only once.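 Where inhibition never reached the appropriate level, the endpoint shown equals the highest concentration tested. Otherwise, values were interpolated linearly from a five-concentration, 48-hour dose response in 96-well plates. Abbreviation: GI50, concentration required for 50% inhibition of growth. Definition used: TGI = concentration required for complete inhibition of growth.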

What all share (assay): NCI-60 cell line screen, 48 h
Assay [1] deals with EKVX NSCLC.
Assay [2] deals with KM12 colon.
Assay [3] deals with K-562 leukemia.
Assay [4] concerns SF-539 CNS.
For assay [5], the system named is OVCAR-5 ovarian.
Assay [6] concerns SK-MEL-5 melanoma.
Assay [7] concerns COLO 205 colon.
In assay [8] the test system is SF-295 CNS.
For assay [9], the system named is HCT-15 colon.
For assay [10], the system named is SF-268 CNS.

On to `O=C(CC1(O)C(=O)Nc2ccccc21)c1ccc(O)cc1` (stereo not given), for which the TGI in assay [1], in assay [2], in assay [3], in [4], in [5] and in [6] was above 100 µM in each case. In addition, the TGI in assay [7], in assay [8], in assay [9] and in [10] was above 100 µM throughout.
`Cc1ccc(-c2cc(=O)c3cc(C)c(C)c(C(=O)O)c3o2)cc1N`: the TGI in assay [1], in assay [2], in assay [3], in assay [4], in assay [5] and in [6] was above 100 µM each time. The TGI in assay [7], in assay [8], in assay [9] and in assay [10] was above 100 µM throughout.
Consider `CCC(=O)Nc1ccccc1C#C/C=C\C#Cc1ccccc1C(F)(F)F`, for which the GI50 is 1.06 µM in assay [1]; 2.02 µM in assay [2]; 2.29 µM in [3]; 4.2 µM in [4]; 3.2 µM in assay [5]; 5.44 µM in [6]. In addition, the GI50 was 4.59 µM in [7], 1 µM in assay [8], 3.9 µM in assay [9] and 3.21 µM in assay [10]. For the same compound, the TGI in assay [1] was 25.2 µM; in [2] it was above 26.5 µM; in [3] it was above 50 µM; in assay [4] it was 13.1 µM; in assay [5], above 37 µM; in assay [6], 18.1 µM. Moreover, the TGI in [7] is above 25.9 µM; in assay [8], 5.34 µM; in [9], above 50 µM; in assay [10], 35.3 µM.
Regarding `Cc1ccc(C2=Nc3c(N)ncnc3NC(c3ccc4c(c3)OCO4)C2)cc1` (stereo not given), the GI50 in assay [1] is 16.2 µM; in assay [2], 3.79 µM; in [3], 4.19 µM; in assay [4] it was 4.98 µM; in assay [5], 32.1 µM; in assay [6], 3.85 µM. The GI50 in [7] is 3.47 µM; in [8] it was 3.45 µM; in [9], 3.14 µM; in assay [10], 4.06 µM. Besides, the TGI in [1] was above 100 µM; in assay [2], 15 µM; in [3], above 100 µM; in [4], 21.7 µM; in assay [5] it was above 100 µM; in assay [6], 37.5 µM. Also, the TGI in assay [7] is 21.7 µM; in assay [8], 21.7 µM; in assay [9] it was 13.7 µM; in assay [10], 16.3 µM.
In the case of `CN(C)CC(C(=O)Cc1ccccc1)c1ccccc1` (stereo not given), the GI50 in [1] was 17 µM; in assay [2] it was 1.07 µM; in assay [3], 1.62 µM; in [4], 1.87 µM; in assay [5], 8.19 µM; in [6] it was 11.6 µM. Further, the GI50 is 2.3 µM in assay [7], 11.3 µM in [8], 1.76 µM in assay [9] and 8.25 µM in assay [10]. The TGI is 40.5 µM in [1]; 2.49 µM in assay [2]; above 100 µM in assay [3]; 3.99 µM in assay [4]; 22.4 µM in assay [5]; 25.2 µM in assay [6]. Besides, the TGI in [7] came to 5.04 µM; in assay [8] it was 27.8 µM; in assay [9], 3.95 µM; in assay [10] it was 22.6 µM.
Regarding `Cc1cc(C(=O)O)c(C)n1-c1cccc(C(=O)O)c1`, the GI50 in assay [1], in assay [2], in assay [3], in assay [4], in assay [5] and in assay [6] was above 100 µM in each case. The GI50 in assay [7], in assay [8], in assay [9] and in assay [10] was above 100 µM in each case. The TGI in assay [1], in assay [2], in assay [3], in assay [4], in [5] and in assay [6] was above 100 µM throughout. Further, the TGI in [7], in [8], in assay [9] and in assay [10] was above 100 µM in each case.
Regarding `C[n+]1c(-c2ccc(/C=N/NC(=O)c3ccc(C(=O)N/N=C/c4ccc(-c5cn6ccccc6[n+]5C)cc4)cc3)cc2)cn2ccccc21`, the GI50 in assay [1] was above 1000 µM; in [2] it was above 1000 µM; in [3] it was 132 µM; in assay [4], 206 µM; in assay [5], above 1000 µM; in [6] it was 155 µM. Also, the GI50 in assay [7] is above 1000 µM; in assay [8], 290 µM; in assay [9] it was above 1000 µM; in assay [10] it was above 1000 µM. The TGI in assay [1] was above 1000 µM; in assay [2], above 1000 µM; in [3] it was 259 µM; in assay [4], 349 µM; in assay [5] it was above 1000 µM; in assay [6], > 94.9 µM and 634 µM. Further, the TGI in assay [7] was above 1000 µM; in [8], 944 µM; in [9], above 1000 µM; in [10], above 1000 µM.
As to `CC12CO[C@@](C)(CC(S(=O)(=O)c3ccccc3)C1)O2` (stereo not given in full), the TGI in assay [1], in assay [2], in assay [3], in assay [4], in assay [5] and in [6] was above 100 µM each time. The TGI in assay [7], in [8], in assay [9] and in [10] was above 100 µM in each case.
With `CCCCC(=O)N/N=C/c1c(O)ccc2ccccc12`, the GI50 was 1.75 µM in assay [1]; 2.28 µM in [2]; 1.89 µM in [3]; 2.8 µM in assay [4]; 6.97 µM in assay [5]; 1.84 µM in assay [6]. Further, the GI50 in [7] was 2.61 µM; in [8], 1.83 µM; in [9], 0.532 µM; in [10], 0.874 µM. The TGI in assay [1] was 7.92 µM; in [2], above 100 µM; in [3], above 100 µM; in [4], above 44.9 µM; in [5], above 100 µM; in [6] it was 11.4 µM. The TGI is above 27.6 µM in assay [7], 16.5 µM in assay [8], above 100 µM in assay [9] and above 75 µM in assay [10].
